The text below walks through data of patent US6586419B1, “Phototherapeutic inactivation of ocular viruses” (PDT Systems, Inc., priority 1997, dated 2003).

Where “and” joins values, the source holds several entries; their conditions need not be identical. Equal entries are not always repeated.

The test system of data set [1] is cell-free Herpes simplex virus (HSV). As to the kind of experiment: Inactivation of cell-free HSV by SnET2 and 660 nm light (viral infectivity/titer). The class given is cell-based. As to the method: The infectivity of cell-free HSV exposed to SnET2 doses ranging from 10 μg/mL to 0.1 μg/mL and 660 nm light doses of 1.56 J/cm^2 are shown in Table 1.
The infectivity of cell-free HSV exposed to 0.1 μg/mL SnET2 and light doses ranging from 1.56 J/cm^2 to 25 J/cm^2 are shown below in FIG. 2.
(§1) To inactivate virus from a frozen viral stock with SnET2 and light doses, the following procedure was employed. Following light treatment, undiluted virus and drug/virus mixture were diluted 10-fold up to 1:10^6. All dilutions were used to infect sub-confluent, heat-shocked cultures of a cell line plated in tissue cultures of 24 well plate in triplicates. The infected cultures were treated with antibody against the major viral capside protein. An alkaline phosphatase labeled antibody to mouse IgG was then added followed by the alkaline phosphatase substrate. This produced a colored reaction which can be monitored microscopically in positive wells. The infected cells were characterized by a dark purple coloration in the nucleus. Viral titer or viral infectivity was determined by the last viral concentration that gave at least one infected cell per well.

The subject of a further data set is cell-associated HSV. As to the kind of experiment: Inactivation of cell-associated HSV by SnET2 and light (viral infectivity/titer). Conditions: for viral infectivity (viral titer): LIGHT (52 mW/cm^2, 1.56 J/cm^2). The format is cell-based, Herpes simplex virus.
In the next data set the test system is cell associated CMV. In words: Inactivation of cell-associated CMV by SnET2 and light (viral infectivity/titer). The class given is cell-based, cytomegalovirus. Conditions: for viral infectivity (viral titer): LIGHT (52 mW/cm^2, 1.56 J/cm^2). As to the method: as §1, with “capside” left out
The conditions of data set [2]: daily systemic intravenous administration; cited from earlier work.
Data set [3] deals with cytomegalovirus (CMV) retinitis. Conditions: AIDS patients with CMV retinitis on anti-HIV and anti-CMV therapy; cited from earlier work.

`CCOC(=O)C1=Cc2c3nc(cc4nc(cc5[n-]c(cc6[n-]c2c(C)c6CC)c(C)c5CC)C(C)=C4CC)[C@@H](C)[C@]13CC.[Cl-].[Cl-].[Sn]` (racemic) [SnET2, tin ethyl etiopurpurin]: the “viral infectivity (viral titer)” value in data set [1] (0.1 μg/mL, 660 nm LIGHT (26 mW/cm^2, 1.56 J/cm^2)) is on record as 10^3; in data set [1] (0.1 μg/mL, DARK), 10^6; in data set [1] (1 μg/mL, 660 nm LIGHT (26 mW/cm^2, 1.56 J/cm^2)) it was <10^1; in data set [1] (1 μg/mL, DARK) it was 10^6; in data set [1] (10 μg/mL, 660 nm LIGHT (26 mW/cm^2, 1.56 J/cm^2)) it was <10^1; in data set [1] (10 μg/mL, DARK) it was 10^6. Besides, the “viral infectivity (viral titer)” value was 10^3 in the data set on cell-associated HSV (1 μg/mL); <10^3 in the data set with cell-associated HSV (5 μg/mL); >10^3 with cell associated CMV (1 μg/mL, CMV 1:2); < 10^2 and 10^4 in the data set on cell associated CMV (1 μg/mL, CMV 1:10, two values given); >10^3 in the data set on cell associated CMV (5 μg/mL, CMV 1:2); < 10^2 and 10^3 with cell associated CMV (5 μg/mL, CMV 1:10, two values given). Moreover, the “viral infectivity (viral titer), light dose response” value is listed as 10^6 in data set [1] (0.1 μg/mL, DARK); 10^3 in data set [1] (0.1 μg/mL, Light 26 mW/cm^2, 1.56 J/cm^2); <10^3 in data set [1] (0.1 μg/mL, Light 26 mW/cm^2, 3.12 J/cm^2); <10^2 in data set [1] (0.1 μg/mL, Light 26 mW/cm^2, 6.24 J/cm^2); <10^1 in data set [1] (0.1 μg/mL, Light 26 mW/cm^2, 12.5 J/cm^2); <10^1 in data set [1] (0.1 μg/mL, Light 26 mW/cm^2, 25 J/cm^2). Also, the dark toxicity entry in data set [1] (10 μg/mL to 0.1 μg/mL, no light) is given as “No dark toxicity was observed”. For the same molecule, the “inactivation of virus in vitro (summary)” value is recorded as “complete inactivation” in data set [1] (SnET2 and light, cell-free HSV); “complete inactivation” in the data set with cell-associated HSV (SnET2 and light, cell associated HSV); “complete inactivation” in the data set on cell associated CMV (SnET2 and light, cell associated CMV). The “inactivation of the virus (partial response)” value in data set [1] (drug dose 0.1 μg/mL, light dose 1.56 J/cm^2, 660 nm) turned out to be 3 log10. The “inactivation of the virus (complete inactivation)” value is given as over 5 log10 in data set [1] (drug dose 1 μg/mL, light dose 1.56 J/cm^2, 660 nm) and over 5 log10 in data set [1] (drug dose 10 μg/mL, light dose 1.56 J/cm^2, 660 nm). The “inactivation (complete inactivation)” value with cell associated CMV (drug dose 1-10 μg/mL, light dose 15.6 J/cm^2) was 2-5 log10.
Consider `Nc1nc2c(ncn2COCCO)c(=O)[nH]1` [anywhere, acyclovir], for which, in data set [2], the systemic toxicity entry is “causing renal toxicity”.
Regarding `O=C(O)P(=O)(O)O` [foscarnet], the median survival in data set [3] is 12.6 months. Moreover, the systemic toxicity entry in data set [2] is on record as “causing renal toxicity”.
Turning to `Nc1nc(O)c2ncn(COC(CO)CO)c2n1` [ganciclovir], the median survival in data set [3] is on record as 8.5 months. For the same molecule, the systemic toxicity result in data set [2] was “suppressing the bone marrow”.
